Measurements from patent publication US20130165520A1, “Hybrid Molecule Having Mixed Retinoic Acid Receptor Agonism and Histone Deacetylase Inhibitory Properties” (priority 2010, published 2013).

Tests used:
Type in all cases: cell-based
[1] = tested on: RAR target genes in MCF-7 cell line; experiment: RT-qPCR analysis of RAR target genes
Excerpt: (§1) The agonist activity of 3 through its effects on RAR target genes was subsequently analyzed (FIG. 3).

RARα = biological target: T1, RARα (Homo sapiens, UniProt P10276); experiment: BRET assay of agonist-dependent coactivator recruitment in transfected HEK293 cells; conditions: 1 μM, 2 hours treatment
T1 sequence (P10276 1-462): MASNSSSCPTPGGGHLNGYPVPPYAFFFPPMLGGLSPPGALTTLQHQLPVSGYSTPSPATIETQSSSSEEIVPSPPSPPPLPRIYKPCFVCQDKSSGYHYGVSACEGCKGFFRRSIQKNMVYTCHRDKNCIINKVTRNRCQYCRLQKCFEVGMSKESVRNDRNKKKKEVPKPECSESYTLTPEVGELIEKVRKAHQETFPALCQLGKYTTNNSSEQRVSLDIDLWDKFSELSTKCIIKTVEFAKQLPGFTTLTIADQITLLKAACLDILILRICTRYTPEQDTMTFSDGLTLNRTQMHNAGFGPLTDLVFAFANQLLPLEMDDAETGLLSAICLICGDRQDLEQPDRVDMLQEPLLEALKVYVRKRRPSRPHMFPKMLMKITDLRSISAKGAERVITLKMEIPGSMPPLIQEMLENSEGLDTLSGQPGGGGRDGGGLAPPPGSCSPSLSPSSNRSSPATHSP
Procedure: Hybrid 3 was prepared by treatment of the methyl ester of TTNN with excess hydroxylamine under alkaline conditions. The effects of hybrid 3 on RAR were initially assessed using a bioluminescence resonance energy transfer (BRET) assay. The BRET assay monitors agonist-dependent recruitment of coactivators to RARs in transfected HEK293 cells, chosen because of their high degree of transfectability. Energy transfer between luciferase (fused to RARα) and eGFP (fused to the LXXLL coactivator motif) occurs only when these moieties are juxtaposed by the RAR-LXXLL interaction, and can be detected by the emission of green fluorescence.
Cell transfection and BRET assays: HEK293 cells were grown to confluence, trypsinized and plated at a density of 500 k cells per well (12-well plates) in DMEM supplemented with 10% charcoal treated FBS (FBS-T). The following day, cells were transfected with PEI using 0.1 μg of RAR-RLuc vector and 1 μg of LXXLL-eGFP vector. 48 hours post-transfection, cells were treated with retinoids for 2 hours before taking BRET measurements as described previously.

[2] = tested on: RAR target genes in MDA-MB-231 cell line; experiment: RT-qPCR analysis of RAR and HDACi target genes; conditions: MDA-MB-231 cell line
Excerpt: as §1

MDA-MB-231 = experiment: Cell growth measurement; conditions: 10 days of treatment
Procedure: (§2) Finally, the effects of 3 on the growth of several breast cancer cell lines [MCF-7 (ER-positive, HER2-negative, RA-sensitive); SkBr3 (ER-negative, HER2-amplified, RA-sensitive); and the normally RA-insensitive MDA-MB-231 (ER-negative, HER2-negative, RA-insensitive)] was assessed.
(§3) Cell Growth Measurement: Cells were plated at 40 k cells per well (6-well plate) in DMEM 5% FBS-T for all cell lines except for I-IMEC cells which were plated in supplemented MEBM from Clonetics. Cells were treated every 48 hours and media was refreshed every 96 hours. After 10 days of treatment cells were harvested in 0.1N NaOH and growth was quantified by analyzing protein content of lysates with a Lowry assay.

[3] = tested on: normal human mammary epithelial cells (HMEC); experiment: Cell growth measurement
MCF-7 = experiment: Cell growth measurement; conditions: 10 days of treatment
Procedure: as §2, §3

SkBr3 = experiment: Cell growth measurement; conditions: 10 days of treatment
Procedure: as §2, §3

SMILES: CC1=C(/C=C/C(C)=C/C=C/C(C)=C/C(=O)O)C(C)(C)CCC1 [ATRA, all-trans-retinoic acid]
- induction of RAR target genes (RT-qPCR) [1]: no induction of either RARB1 or RARB2
- RARα agonism (BRET signal) (RARα): agonists of RARα
- induction of RAR target genes (RT-qPCR) [2]: only induce RARB2
- effect on cell growth (MDA-MB-231): little to no effect

SMILES: CN1c2ccccc2N=C(c2ccc(C(=O)O)cc2)c2cc3c(cc21)C(C)(C)CCC3(C)C [HX600]
- RARα agonism (BRET signal) (RARα): no increase in BRET signal

SMILES: O=C(CCCCCCC(=O)Nc1ccccc1)NO [SAHA, reference compound]
- effect on growth of normal cells [3]: strong inhibition
- effect on cell growth (MCF-7): shallow activity
- effect on cell growth (MDA-MB-231): modest decrease in cell growth
- effect on cell growth (SkBr3): shallow activity

SMILES: CC1(C)CCC(C)(C)c2cc(-c3ccc4cc(C(=O)O)ccc4c3)ccc21 [TTNN, 6-(5,6,7,8-tetrahydro-5,5,8,8-tetramethyl-2-naphthalenyl)-2-naphthalene carboxylic acid, reference compound]
- induction of RAR target genes (RT-qPCR) [1]: no induction of either RARB1 or RARB2
- RARα agonism (BRET signal) (RARα): agonists of RARα
- induction of RAR target genes (RT-qPCR) [2]: only induce RARB2
- effect on cell growth (MCF-7): inactive
- effect on cell growth (MDA-MB-231): little to no effect
- effect on cell growth (SkBr3): inactive
